Experiment [1] concerns rat primary cortical neurons. Nature of the experiment: LDH release, human Aβ1-42 toxicity on rat primary cortical cells. Type of experiment: cell-based. The following applies: 0.32 nM alone; Aβ1-42 2.5 μM. As to the method:
Primary rat cortical neurons are cultured as described previously.
Briefly, Aβ1-42 peptide was reconstituted in defined culture medium at 40 μM (mother solution) and was slowly shacked at +37° C. for 3 days in the dark for aggregation. The control medium was prepared in the same conditions.
After 10 days of neuron culture, the drug was solved in culture medium (+0.1% DMSO) and then pre-incubated with neurons for 1 hour before the Aβ1-42 application (in a final volume per culture well of 100 μl). […] Cortical neurons were intoxicated for 24 hours. Three separate cultures were performed per condition, 6 wells per condition.
Estradiol-β at 100 and 150 nM were used as a reference test compound and BDNF at 50 ng/ml was used as a positive control. Three separate cultures were performed per condition, […].
Estradiol-β and BDNF were solved in culture medium and pre-incubated for 1 h before the aggregated amyloid-β1-42 application.
Lactate Dehydrogenase (LDH) Activity Assay
This colorimetric assay for the quantification of cell toxicity is based on the measurement of lactate dehydrogenase (LDH) activity released from the cytosol of dying cells into the supernatant.
All values are expressed as mean±s.e.mean of the 3 cultures (n=6 per condition). Statistical analyses were done on the different conditions (ANOVA followed by the Dunnett's test when it was allowed, Statview software version 5.0).

Experiment [2] deals with rat primary cortical neurons. Kind of experiment: Neurite outgrowth in beta-amyloid (Aβ25-35) intoxicated rat primary cortical neuron culture. Type of experiment: cell-based. The following applies: Aβ25-35 20 μM, 2 days; drug added 1 hour before.
For experiment [3], the system named is NGF-differentiated PC12 cells. Nature of the experiment: MTT viability of NGF-differentiated PC12 after Aβ25-35 intoxication. Type of experiment: cell-based, rat. The following applies: Aβ25-35 10 μM, 24 hours, drug added 1 hour before. The procedure:
PC12 (Pheochromocytoma Rat, ATCC ref: CRL-1721) cells from [NT] CRL-1721) were rapidly thawed in 37° C. water. The supernatant was immediately put in 9 ml of a PC12 proliferation medium containing Dulbecco's modified Eagle's medium DMEM-F12 (Pan Biotech ref: P04-41450) with 15% heat-inactivated horse serum (Invitrogen ref: 16050-130), 2.5% of fetal bovine serum (FBS; Invitrogen ref: 16000-036), 1% of Penicillin 10,000 U/ml and Streptomycin 10 mg/ml (PS; Pan Biotech ref: P06-07100) and 1% of L-glutamine 200 mM (Pan Biotech ref: P04-80100). Cells were centrifuged (800 rounds/min, 4° C. for 5 min) and added in 5 ml PC12 proliferation medium, viable cells were counted with a Malassez cell using the […] exclusion test (Sigma). Then the cells were seeded at 3.10^4 cells per cm^2 in PC12 proliferation medium in 75 cm^2 plastic flasks (Greiner Ref: 658175) precoated with poly-L-lysine (10 μg/ml, Sigma Ref: P2636). Medium was changed every other day. After 3 days of culture, when cells reached 80% of confluence, they were washed in HBSS without calcium and magnesium (Pan Biotech Ref: […] P10-023100). The enzymatic reaction was stopped with PC12 proliferation medium added by 0.5 mg/ml of DNAse 1 grade 2 (Pan Biotech Ref: 760-37780100). […]

For experiment [4], the system named is rat primary cortical neurons. Kind of experiment: LDH release in Aβ25-35 intoxicated rat primary cortical neuron culture. Type of experiment: cell-based. The following applies: Aβ25-35 20 μM, 2 days; drug added 1 hour before. The procedure:
Primary rat cortical neurons are cultured as described by Singer et al., 1999. Briefly pregnant female rats of 15 days gestation are killed by cervical dislocation (Rats Wistar; Janvier) and the foetuses removed from the uterus. The cortexes are removed and placed in ice-cold medium of Leibovitz (L15; Invitrogen) containing 1% of Penicillin-Streptomycin (PS; Invitrogen) and 1% of bovine serum albumin (BSA; Sigma). Cortexes are dissociated by trypsinisation for 20 min at 37° C. (Trypsin EDTA 1×; Invitrogen) diluted in PBS without calcium and magnesium. The reaction is stopped by the addition of Dulbecco's modified Eagle's medium (DMEM; Invitrogen) containing DNAase I grade II (0.1 mg/ml; Roche Diagnostics) and 10% of foetal calf serum (FCS; Invitrogen). Cells are then mechanically dissociated by 3 passages through a 10 ml pipette. Cells are then centrifuged at 180×g for 10 min at 10° C. […] Viable cells are counted in a Neubauer cytometer using the trypan blue exclusion test. Cells are seeded at a density of 30,00-cells/well in 96-well plates (wells are pre-coated with poly-L-lysine (10 μg/ml; […] After 6 days of culture, cells are incubated with drugs (5 concentrations). After 1 hour, cells are intoxicated by 20 μM of β-amyloid (25-35; Sigma) in defined medium without BDNF but together with drugs. Cortical neurons are intoxicated for 2 days. After 2 days of culture, the supernatant is collected and analyzed with the Cytotoxicity Detection Kit (LDH, Roche Applied Sciences). This colorimetric assay for the quantification of cell death is based on the measurement of lactate dehydrogenase (LDH) activity released from the cytosol of damaged cells into the supernatant. The optic density (DO) is assessed by spectrophotometer at 492 nm wavelength by a multiscan apparatus (Thermo, Ref Ascent). […] Two days after this incubation, LDH release in the culture medium is quantified, reflecting the level of cell death.

Regarding `CC(=O)NCCCS(=O)(=O)O` [Acamprosate], the “Effect on Aβ1-42 intoxication, LDH release, drug alone” value in experiment [1] was “no significant effect”. For the same molecule, the “Prevention of Aβ25-35 intoxication, neurite outgrowth (neurite length)” value in experiment [2] is recorded as “significantly prevented”.
`CCCNC(C)C(=O)Nc1ccccc1C` (stereo not drawn) [Prilocain, Prilocaine]: the “Prevention of Aβ25-35 intoxication, cell viability (MTT)” value in experiment [3] is “significantly prevented”; in experiment [3] (listed as prilocaine), “strong neuroprotective effect”.
Turning to `NS(=O)(=O)Cc1noc2ccccc12` [Zonisamide], the “Prevention of Aβ25-35 intoxication, LDH release” value in experiment [4] is listed as “significantly prevented”. Moreover, the “Prevention of Aβ25-35 intoxication, neurite outgrowth (neurite length)” value in experiment [2] was “significantly prevented”.
